From PubChem BioAssay (NCI)
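Cells were grown in 96-well plates and exposed to each compound for 48 hours at five concentrations; endpoints were interpolated linearly between bracketing concentrations, or set to the highest concentration if not reached. GI50 marks 50% less growth. At the TGI there is no net growth.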

Assays:
Experiment in all cases: inhibition of tumour cell growth, NCI panel, 48 h
786-0 renal = test system: 786-0 renal
HCT-116 colon = test system: HCT-116 colon
HOP-92 NSCLC = test system: HOP-92 NSCLC
HT29 colon = test system: HT29 colon
MDA-MB-435 = test system: MDA-MB-435
NCI/ADR-RES ovarian = test system: NCI/ADR-RES ovarian

SMILES	GI50 (786-0 renal)	TGI (786-0 renal)	GI50 (HCT-116 colon)	TGI (HCT-116 colon)	GI50 (HOP-92 NSCLC)	TGI (HOP-92 NSCLC)	GI50 (HT29 colon)	TGI (HT29 colon)	GI50 (MDA-MB-435)	TGI (MDA-MB-435)	GI50 (NCI/ADR-RES ovarian)	TGI (NCI/ADR-RES ovarian)
Cc1cc(C)c(C(=O)CC(=O)c2cccnc2)c(C)c1	9.45 µM	50.1 µM	4.31 µM	> 100 µM	7.47 µM	57 µM	4.85 µM	> 100 µM	7.48 µM	> 100 µM	2.29 µM	9.88 µM
Cc1ccc(C(=NN=C(N)N)c2ccc(C)cc2)cc1	0.623 µM	2.86 µM	0.372 µM	4.48 µM	0.99 µM	5.96 µM	0.316 µM	1.17 µM	0.199 µM	0.471 µM	1.85 µM	5.59 µM
CCOC(=O)c1cc(/C(=N\O)c2cc(OC)c(OC)c(OC)c2)n2cc(C)cc(C)c12	3.01 µM	10 µM	1.86 µM	3.93 µM	2.26 µM	7.08 µM	3.08 µM	> 100 µM	0.565 µM	4.16 µM	2.19 µM	7.92 µM
O=C(Nc1ccc(Cl)cc1)c1cc(-c2ccc(F)cc2)c2sc(=O)[nH]c2n1	1.35 µM	2.85 µM	1.43 µM	2.96 µM	0.204 µM	0.94 µM	3.02 µM	11.4 µM	3.01 µM	17.4 µM	2.32 µM	10.9 µM
COc1ccc(C(=O)c2cc(C)c(OC)c(C)c2)c(OC)c1N(C(=O)C(Cl)Cl)C(=O)C(Cl)Cl	0.0455 µM	> 100 µM	0.0772 µM	> 58.8 µM	0.407 µM	> 94 µM	0.323 µM	> 40.6 µM	0.021 µM	0.0625 µM	0.032 µM	–
CC(C)c1ccc(C(=O)Nc2sc3c(c2C(N)=O)CCC(=O)C3)cc1	2.29 µM	10.5 µM	0.311 µM	1.43 µM	1.29 µM	3.67 µM	0.484 µM	5.34 µM	1.49 µM	3.62 µM	0.975 µM	5.57 µM
CC(=O)OC1CC(O)C23COC(O)C1(C)C2CC(O)C1(C)C3C(=O)C(O)C2(C)C(c3ccoc3)CC3OC321 (stereo unspecified)	0.0897 µM	> 64.2 µM	< 0.01 µM	> 100 µM	0.911 µM	> 100 µM	< 0.01 µM	> 33.3 µM	< 0.0152 µM	> 100 µM	71.9 µM	> 100 µM
CCC#CC[C@H]1C/C=C2/C(=O)C=C[C@@H]2C/C=C\CCCC(=O)O1	1.06 µM	2.4 µM	0.43 µM	2.61 µM	1.94 µM	6.33 µM	0.894 µM	2.39 µM	0.68 µM	2.18 µM	1.01 µM	17.2 µM
CC12CCCC(O)C1CCC1=CC3(CCC12)SCCS3 (stereo unspecified)	–	> 10 µM	–	–	–	> 10 µM	–	> 10 µM	–	> 10 µM	–	> 10 µM
COC(=O)Nc1nc2ccc(Oc3ccc(NC(=O)Nc4ccccc4)cc3)cc2[nH]1	0.18 µM	5.05 µM	0.119 µM	> 10.4 µM	0.555 µM	11.1 µM	0.0937 µM	1.01 µM	0.0474 µM	0.12 µM	0.391 µM	> 25 µM
O=C(N/N=C/c1cccc(O)c1O)c1ccccc1	1.48 µM	> 100 µM	0.388 µM	> 100 µM	0.329 µM	8.38 µM	4.9 µM	> 100 µM	1.88 µM	> 100 µM	0.648 µM	> 100 µM
CCOC(=O)Sc1ncnc2nc[nH]c12	2.31 µM	> 100 µM	2.31 µM	> 100 µM	–	–	3.07 µM	> 100 µM	1.47 µM	> 100 µM	3.47 µM	> 100 µM
COc1ccc(C(=O)COc2cccc(/C=C3\COc4ccc5ccccc5c4C3=O)c2)cc1	57.4 µM	> 100 µM	4.21 µM	> 100 µM	0.786 µM	8.14 µM	6.08 µM	> 100 µM	4.08 µM	41.3 µM	6.14 µM	> 100 µM
CCc1[nH]c(=O)nc(N)c1-c1ccc(N2CCCCC2)c([N+](=O)[O-])c1	–	> 100 µM	–	> 100 µM	–	> 100 µM	–	> 100 µM	–	> 100 µM	–	> 100 µM
NC(=S)N/N=C/c1ccc(OC(=O)COc2ccc(Cl)cc2)cn1	3.64 µM	9.98 µM	4.93 µM	> 100 µM	–	–	7.19 µM	> 100 µM	5.89 µM	> 100 µM	3.17 µM	> 100 µM
COc1cc(C2=NN(C(C)=O)C(c3ccc(OC(C)=O)cc3OC(C)=O)O2)c(OC(C)=O)c2ccccc12 (stereo unspecified)	0.902 µM	12.7 µM	0.346 µM	12.2 µM	2.07 µM	30.7 µM	4.48 µM	41.3 µM	1.38 µM	39 µM	0.542 µM	> 51.8 µM
CC(=O)OC1Oc2ccccc2-c2oc(=O)c(-c3cc4ccc(N(C)C)cc4oc3=O)cc21 (stereo unspecified)	15.7 µM	39.3 µM	1.42 µM	21.7 µM	4.8 µM	23.3 µM	22 µM	> 100 µM	13.3 µM	46.8 µM	6.11 µM	34.7 µM
O=C1NC(=O)c2ccc([N+](=O)[O-])c3cccc1c23	–	27 µM	–	23.9 µM	–	37.2 µM	–	39.3 µM	–	29.9 µM	–	–
NC(N)=NCCCn1c2c(c3ccccc3c1=O)C(=O)c1ccccc1-2	0.681 µM	3.29 µM	22.3 µM	45.6 µM	3.2 µM	47.5 µM	32.6 µM	> 100 µM	25.9 µM	71.5 µM	38.6 µM	> 100 µM
Cc1cc(SCC(=O)c2ccccc2)nc2ccccc12	–	> 100 µM	–	> 100 µM	–	> 100 µM	–	> 100 µM	–	> 100 µM	–	> 100 µM
O=C(c1cccc(O)c1O)c1cn(Cc2ccc(F)cc2)c2cccc(O)c12	7.46 µM	20.8 µM	3.28 µM	17.1 µM	0.361 µM	7.44 µM	7.43 µM	23.4 µM	5.23 µM	36.3 µM	2.59 µM	15.2 µM

SMILES	GI50 (786-0 renal)	TGI (786-0 renal)	GI50 (HCT-116 colon)	TGI (HCT-116 colon)	GI50 (HOP-92 NSCLC)	TGI (HOP-92 NSCLC)	GI50 (HT29 colon)	TGI (HT29 colon)	GI50 (MDA-MB-435)	TGI (MDA-MB-435)	GI50 (NCI/ADR-RES ovarian)	TGI (NCI/ADR-RES ovarian)
CCN(CC)c1ccc(C(=N)c2ccc(N(CC)CC)cc2)cc1	0.646 µM	2.05 µM	0.323 µM	1.35 µM	0.607 µM	2.72 µM	0.319 µM	2.83 µM	0.318 µM	1.3 µM	0.412 µM	1.83 µM
Fc1cc(F)c(COc2cc(Cn3cnc4c(Cl)nc(Cl)nc43)ccc2C23CC4CC(CC(C4)C2)C3)cc1F	19.4 µM	34.9 µM	15.2 µM	28.5 µM	17.6 µM	32.1 µM	23.6 µM	62.5 µM	17.3 µM	33 µM	18.3 µM	37.1 µM
Cc1ccc(/C(=C/C=C(C#N)C#N)Sc2ccc(Cl)cc2)cc1	1.9 µM	4.57 µM	2.24 µM	3.97 µM	15 µM	56.6 µM	–	–	3.02 µM	10.7 µM	5.99 µM	19.9 µM
COc1cc2oc(-c3ccc(O)cc3)cc(=O)c2c(OC)c1OC	–	> 100 µM	–	> 100 µM	–	> 100 µM	–	> 100 µM	–	> 100 µM	–	> 100 µM
CN(C)c1ccc(N)cc1	8.38 µM	97.5 µM	2.67 µM	8.44 µM	2.3 µM	7.91 µM	3.04 µM	10.8 µM	3.4 µM	15.2 µM	12.6 µM	48 µM
CCOC(=O)c1c(CN2CCN(c3ccccc3)CC2)n(-c2ccccc2)c2cc(Br)c(O)cc12	5.23 µM	21.5 µM	4.39 µM	20.1 µM	2.98 µM	11.7 µM	11.8 µM	32.5 µM	11.3 µM	34.4 µM	12.4 µM	41.7 µM
CC/C=C\C[C@@H]1C/C=C2/C(=O)C=C[C@H]2C/C=C\CCCC(=O)O1	0.818 µM	2.18 µM	0.133 µM	0.32 µM	2.25 µM	4.97 µM	0.267 µM	0.677 µM	0.25 µM	0.845 µM	0.349 µM	18.7 µM
COc1cc(NC(=O)c2cc(O)c(CC=C(C)C)c(O)c2)cc2c1O[C@]1(C)CC[C@@H](O)C(C)(C)[C@H]1C2	0.567 µM	7.24 µM	3.37 µM	15.4 µM	–	–	3.47 µM	11.9 µM	3.73 µM	23.7 µM	37 µM	> 100 µM
CCS(=O)(=O)c1ccc(OC)c(Nc2ncc(-c3cccc(OC)c3)o2)c1	9.57 µM	> 25 µM	8.1 µM	> 25 µM	2.76 µM	9.17 µM	10.8 µM	> 25 µM	18.2 µM	> 25 µM	9.38 µM	> 25 µM
CN(C)CCCn1c2c(c3ccccc3c1=O)C(=O)c1ccccc1-2	2.47 µM	14.2 µM	0.578 µM	4.34 µM	0.421 µM	5.59 µM	0.749 µM	4.51 µM	2.82 µM	12 µM	1.85 µM	7.13 µM
c1ccc(C2=NNC3c4ccccc4-c4ccccc4N3C2)cc1 (stereo unspecified)	–	> 100 µM	–	> 100 µM	–	> 100 µM	–	> 100 µM	–	68.1 µM	–	> 100 µM
CCN(CC)c1sc(N(CC)CC)c2c1SSSSS2	1.2 µM	3.09 µM	0.356 µM	1.14 µM	2.87 µM	5.92 µM	2.06 µM	5.2 µM	0.844 µM	2.09 µM	0.89 µM	2.53 µM
CCN(CC)CCN1CC(O)=C(c2nc(-c3ccc(Cl)cc3)cs2)C1=N	1.62 µM	3.19 µM	1.78 µM	4.16 µM	1.49 µM	8.65 µM	2 µM	6.27 µM	1.72 µM	3.25 µM	9.12 µM	> 100 µM
CCN(CC)CCCC(C)Nc1c(C)cnc2cc(Cl)c(C)cc12 (stereo unspecified)	10.8 µM	23 µM	2.56 µM	13.6 µM	0.288 µM	3.87 µM	2.72 µM	> 24.8 µM	7.8 µM	20.1 µM	3.43 µM	10.7 µM
COc1ccc(OC)c(/C=C/C(=O)N/N=C/c2ccc(Cl)cc2)c1	0.143 µM	> 100 µM	0.0571 µM	–	9.27 µM	75.2 µM	0.0388 µM	4.65 µM	0.0263 µM	0.106 µM	0.0364 µM	0.215 µM
CCCCN=C(N)c1ccc(OCCSCCOc2ccc(C(N)=NCCCC)cc2)cc1	> 100 µM	> 100 µM	4.46 µM	> 100 µM	1.44 µM	14.6 µM	2.79 µM	> 100 µM	3.35 µM	> 100 µM	> 100 µM	> 100 µM
CCN1C(=O)CNc2ncc(-c3ccc(-c4ncn[nH]4)nc3C)nc21	0.117 µM	4.35 µM	0.277 µM	4.62 µM	0.0212 µM	0.168 µM	0.317 µM	11.6 µM	0.162 µM	1.63 µM	0.284 µM	3.58 µM
O=C1c2ccccc2-c2c1c1ccccc1c(=O)n2Cc1ccccc1	–	> 100 µM	–	> 100 µM	–	> 100 µM	–	> 100 µM	–	> 100 µM	–	> 100 µM
CN(C)CCNC(=O)c1cccc(C(=O)Nc2ccccc2)c1[N+](=O)[O-]	–	> 100 µM	–	> 100 µM	–	–	–	> 100 µM	–	> 100 µM	–	> 100 µM
CC1CN1CC(O)C(O)CN1CC1C (stereo unspecified)	0.831 µM	> 41.2 µM	2.29 µM	> 100 µM	6.12 µM	> 28.6 µM	2.87 µM	19.7 µM	4.93 µM	24.8 µM	1.24 µM	> 87.1 µM
